Assay results published in paper PMC8650031, “Santin and cirsimaritin from Betula pubescens and Betula pendula buds induce apoptosis in human digestive system cancer cells” (Journal of Cellular and Molecular Medicine, 2021).

Key:
[1] = test system: gastric adenocarcinoma AGS cells; assay: MTT cell viability assay, AGS cells; type: cell-based, human; conditions: Homo sapiens, MTT
Protocol: (§1) Viability of cells was determined using the MTT assay. Cells were plated in 96‐well plates at 1 × 10^4 cells per well and allowed to adhere for 24 h. […] MTT (3‐(4,5‐Dimethyl‐2‐thiazolyl)‐2,5‐diphenyl‐2H‐tetrazolium bromide, Sigma‐Aldrich, USA) solution was added to each well, and cells were incubated at 37°C for 4 h. The medium was then removed, and formazan crystals were dissolved in 100 μL of DMSO and 12.5 μL of Sorensen's glycine buffer on a plate shaker. Absorbance was measured at 570 nm using a microplate reader. IC50 values were calculated using GraphPad Prism software.

[2] = test system: colorectal adenocarcinoma DLD‐1 cells; assay: MTT cell viability assay, DLD-1 cells; type: cell-based, human; conditions: Homo sapiens, MTT
Protocol: as §1

[3] = test system: hepatocellular carcinoma HepG2 cells; assay: MTT cell viability assay, HepG2 cells; type: cell-based, human; conditions: Homo sapiens, MTT
Protocol: as §1

[4] = test system: normal human skin fibroblasts (CCD25Sk); assay: MTT cell viability assay, normal fibroblasts; type: cell-based; conditions: Skin fibroblast
Protocol: as §1

[5] = test system: AGS cells; assay: [3H]-thymidine incorporation (DNA biosynthesis), AGS; type: cell-based, human; conditions: 50 μM, 48 h
Protocol: (§2) Cells were plated in 24‐well plates at 4 × 10^4 cells per well and allowed to adhere for 24 h. Cells were treated with the various concentrations of flavonoids (25, 50 and 100 μM) in 1 mL medium containing 0.5 μCi [^3H]‐thymidine (#MT6037, Hartmann Analytic, Germany) for 48 h. Medium was discarded, and cells were rinsed three times with phosphate buffered saline (PBS), and solubilized with 1 mL of 0.1 M sodium hydroxide containing 1% sodium dodecyl sulphate. Then, 9 mL of scintillation liquid (PerkinElmer, USA) was added, and radioactivity incorporated into DNA was measured using a scintillation counter.

[6] = test system: DLD‐1 cells; assay: [3H]-thymidine incorporation (DNA biosynthesis), DLD-1; type: cell-based, human; conditions: DLD-1, 50 μM, 48 h
Protocol: as §2

[7] = test system: HepG2 cells; assay: [3H]-thymidine incorporation (DNA biosynthesis), HepG2; type: cell-based, human; conditions: HepG2, 50 μM, 48 h
Protocol: as §2

[8] = test system: AGS cells; assay: Annexin V/propidium iodide apoptosis assay, AGS; type: cell-based, human; conditions: 12.5 μM, 48 h
Protocol: (§3) Cells were seeded at a density of 1 × 10^5 cells per well in 6-well plates and allowed to adhere for 24 h. Cells were treated with various concentrations of flavonoids (12.5, 25, 50 and 100 μM) for 48 h. Floating and adherent cells were collected and assayed using a Dead Cell Apoptosis Kit with annexin V-fluorescein isothiocyanate (FITC) and propidium iodide (PI), for flow cytometry (#V13242, Thermo Fisher Scientific, USA), according to the manufacturer’s protocol. Briefly, cells were dispersed in 100 μL annexin-binding buffer containing 5 μL annexin V-FITC conjugate solution, 1 μg/mL PI and 1 μg/mL Hoechst 33342, and incubated for 15 min at room temperature. Then 400 μL of annexin-binding buffer was added, and the cell suspension was transferred to 96-well plates and visualised using fluorescence microscopy on a BD Pathway 855 system (Becton Dickinson, USA). Early […]
(§4) red and blue fluorescence. […]

[9] = test system: DLD‐1 cells; assay: Annexin V/propidium iodide apoptosis assay, DLD-1; type: cell-based, human; conditions: DLD-1, 12.5 μM, 48 h
Protocol: as §3, §4

[10] = test system: HepG2 cells; assay: Annexin V/propidium iodide apoptosis assay, HepG2; type: cell-based, human; conditions: HepG2, 12.5 μM, 48 h
Protocol: as §3, §4

[11] = test system: AGS cells; assay: Colony formation assay, AGS; type: cell-based, human; conditions: 3.125 μM, 48 h treatment then 7 days culture
Protocol: (§5) 2.5. Colony formation assay
(§6) In total, 250 cells were plated in each well of 12-well plates and allowed to adhere for 24 h.
(§7) Cells were treated with various concentrations of flavonoids (3.125, 6.25, 12.5, 25, 50 and 100 μM) for 48 h. Medium was discarded and fresh medium was added. After seven days, culture medium was removed and cells were washed once with PBS. Then, cells were fixed with 4% formaldehyde and stained with 0.1% crystal violet. […]

[12] = test system: DLD‐1 cells; assay: Colony formation assay, DLD-1; type: cell-based, human; conditions: DLD-1, 6.25 μM, 48 h treatment then 7 days culture
Protocol: as §5, §6, §7

[13] = test system: HepG2 cells; assay: Colony formation assay, HepG2; type: cell-based, human; conditions: HepG2, 3.125 μM, 48 h treatment then 7 days culture
Protocol: as §5, §6, §7

[14] = test system: p53 in AGS cells; assay: p53 expression by Western blot and fluorescence microscopy, AGS; type: cell-based, human; conditions: 48 h treatment
Protocol: (§8) Cells were seeded at a density of 1 × 10^5 cells per well in 6-well plates and allowed to adhere for 24 h. Cells were treated with various concentrations of flavonoids (12.5, 25, 50 and 100 […]
(§9) Adherent and floating cells were harvested and sonicated. Obtained homogenates were supplemented with 1% protease and phosphatase inhibitor cocktail (#78440, Thermo Fisher Scientific, USA). A Lowry assay was performed to quantify protein content in the homogenates. Proteins (20–40 μg) were resolved on 7.5%, 10% or 12% SDS-PAGE gels using the Mini-Protean Tetra system (Bio-Rad, USA). Proteins were transferred to nitrocellulose membranes (Bio-Rad, USA) using the Mini Trans-Blot Cell wet blotting system (Bio-Rad, USA). Membranes were blocked with 5% skim milk for 1 hour at room temperature and probed overnight at 4 °C with primary antibodies. The following antibodies […]
(§10) 1:1000), purchased from Cell Signaling Technology (USA); anti-p53 antibody (#sc-126, […]
(§11) 1:500) obtained from Santa Cruz Biotechnology (USA); and anti-actin antibody (#A2066, 1:2000) purchased from Sigma-Aldrich (USA). After extensive washes, a secondary antibody solution in 5% skim milk (anti-mouse IgG-HRP, Sigma-Aldrich, #A9044, 1:5000; anti-rabbit IgG-HRP, Sigma-Aldrich, #A9169, 1:5000) was added for 1 h at room temperature.
(§12) Membranes were incubated with ECL-HRP substrate (GE Healthcare, USA) and the signal was detected using the BioSpectrum Imaging System (Ultra-Violet Products, Ltd., UK).
(§13) 2.8. Immunofluorescence microscopy
(§14) Cells were plated in 96-well plates at 1 × 10^4 cells per well and allowed to adhere for 24 h.
(§15) Cells were treated with the respective concentration of flavonoids and incubated for 48 h. […]
(§16) The mass spectrometric detector was calibrated by analyzing flavonoid solutions in the concentration range 0.06‒2.0 mg/ml in the mode of selective monitoring of the most intense ions (M+ ‒ CH3) in the spectra of TMS derivatives of the determined components (Table S1).

[15] = test system: p53 in DLD‐1 cells; assay: p53 expression by Western blot and fluorescence microscopy, DLD-1; type: cell-based, human; conditions: DLD-1, 48 h treatment
Protocol: as §8, §9, §10, §11, §12, §13, §14, §15, §16

[16] = test system: p53 in HepG2 cells; assay: p53 expression by Western blot and fluorescence microscopy, HepG2; type: cell-based, human; conditions: HepG2, 48 h treatment
Protocol: as §8, §9, §10, §11, §12, §13, §14, §15, §16

Question: COc1ccc(-c2oc3cc(O)c(OC)c(O)c3c(=O)c2OC)cc1 [santin] was tested. Which IC50 ([1]; 24 h) did it give?
Answer: Its IC50 is > 50 µM.

Question: And the IC50 ([1]; 48 h)?
Answer: Its IC50 is 17.1 ± 0.8 µM.

Question: And the IC50 ([1]; 72 h)?
Answer: The IC50 was 13.9 ± 1.2 µM.

Question: And the IC50 ([2]; DLD-1, 24 h)?
Answer: The IC50 was > 50 µM.

Question: What about the IC50 ([2]; DLD-1, 48 h) of the same compound?
Answer: Its IC50 is 28 ± 1.3 µM.

Question: And the IC50 ([2]; DLD-1, 72 h)?
Answer: The IC50 was 36.5 ± 2.5 µM.

Question: And the IC50 ([3]; HepG2, 24 h)?
Answer: The IC50 was > 50 µM.

Question: What about the IC50 ([3]; HepG2, 48 h) of the same compound?
Answer: Its IC50 is 19.8 ± 0.9 µM.

Question: And the IC50 ([3]; HepG2, 72 h)?
Answer: The IC50 was 22.7 ± 1.6 µM.

Question: And the IC50 ([4]; 24 h)?
Answer: Its IC50 is > 50 µM.

Question: What about the IC50 ([4]; 48 h) of the same compound?
Answer: The IC50 was > 50 µM.

Question: And the IC50 ([4]; 72 h)?
Answer: Its IC50 is > 50 µM.

Question: What about the “reduction of [3H]-thymidine incorporation” value (“reduction” below) [5] of the same compound?
Answer: Its value is 48.0%.

Question: What about the “reduction” value [6] of the same compound?
Answer: Its value is 35.0%.

Question: And the “reduction” value [7]?
Answer: Its value is 74.9%.

Question: And the “percentage of cells in the early stage of apoptosis” value [8]?
Answer: Its value is 65.8%.

Question: And the “percentage of cells in the late stage of apoptosis” value [8]?
Answer: Its value is 7.6%.

Question: What about the “percentage of cells in the early stage of apoptosis” value [9] of the same compound?
Answer: The value was 54.8%.

Question: And the “percentage of cells in the late stage of apoptosis” value [9]?
Answer: The value was 6.7%.

Question: And the “percentage of cells in the early stage of apoptosis” value [10]?
Answer: The value was 36.6%.

Question: And the “percentage of cells in the late stage of apoptosis” value [10]?
Answer: The value was 16.1%.

Question: What about the “decrease in colony numbers” value [11] of the same compound?
Answer: Its value is 77.4%.

Question: What about the “decrease in number of colonies” value [12] of the same compound?
Answer: The value was 60%.

Question: And the “decrease in colony numbers” value [13]?
Answer: The value was 65.8%.

Question: And the p53 level [14]?
Answer: Its p53 level is “increased significantly”.

Question: And the p53 level [15]?
Answer: The p53 level was “decreased”.

Question: What about the p53 level [16] of the same compound?
Answer: The p53 level was “increased significantly”.
